Data published in BindingDB's records for PubMed 34355178 (n/a, 2021).

Target: T1, Toll-like receptor 7 (Homo sapiens, UniProt Q9NYK1)
T1 sequence (Q9NYK1 whole entry): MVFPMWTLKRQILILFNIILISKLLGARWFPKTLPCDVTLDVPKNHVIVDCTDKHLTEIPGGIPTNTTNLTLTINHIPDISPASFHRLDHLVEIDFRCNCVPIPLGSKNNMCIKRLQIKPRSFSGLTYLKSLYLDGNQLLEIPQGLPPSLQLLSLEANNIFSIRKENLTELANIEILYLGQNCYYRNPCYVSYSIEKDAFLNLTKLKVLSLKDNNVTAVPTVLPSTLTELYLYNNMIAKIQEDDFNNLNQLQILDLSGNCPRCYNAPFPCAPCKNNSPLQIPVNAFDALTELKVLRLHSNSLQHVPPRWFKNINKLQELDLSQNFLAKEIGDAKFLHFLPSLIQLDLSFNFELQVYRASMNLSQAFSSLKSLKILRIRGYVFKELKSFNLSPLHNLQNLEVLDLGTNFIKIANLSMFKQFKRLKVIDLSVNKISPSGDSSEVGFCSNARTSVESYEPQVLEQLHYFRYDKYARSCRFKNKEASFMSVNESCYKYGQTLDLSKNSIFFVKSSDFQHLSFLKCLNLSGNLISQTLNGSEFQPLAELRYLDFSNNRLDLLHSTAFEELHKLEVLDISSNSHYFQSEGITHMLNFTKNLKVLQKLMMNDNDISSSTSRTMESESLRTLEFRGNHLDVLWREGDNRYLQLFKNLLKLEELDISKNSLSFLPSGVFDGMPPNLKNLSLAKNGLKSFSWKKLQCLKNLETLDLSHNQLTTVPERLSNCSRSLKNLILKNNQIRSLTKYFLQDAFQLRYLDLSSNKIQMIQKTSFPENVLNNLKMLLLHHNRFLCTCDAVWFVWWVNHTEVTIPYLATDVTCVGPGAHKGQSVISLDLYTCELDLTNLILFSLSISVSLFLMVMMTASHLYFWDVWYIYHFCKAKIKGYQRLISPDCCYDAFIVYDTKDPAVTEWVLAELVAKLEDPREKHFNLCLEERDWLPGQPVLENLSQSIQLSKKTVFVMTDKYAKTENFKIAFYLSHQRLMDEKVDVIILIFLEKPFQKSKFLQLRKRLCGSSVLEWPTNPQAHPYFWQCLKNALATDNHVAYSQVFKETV
Experiment: Agonist activity at human TLR7 in HEK-Blue hTLR7 cells assessed as activation of NFkappaB by SEAP reporter gene based spectrophotometry assay

Row | EC50 | SMILES
1 | 8.11 µM | CC[C@H](C)c1nc2c(N)nc3ccccc3c2s1
2 | 8.19 µM | CCCc1nc2c(N)nc3ccc(N)cc3c2s1
